Columns and labels:
[1] = Blood CBD and 7-COOH-CBD levels pre- and post-car ride (mass spectrometry); format: in vivo, Beagle dogs
Experimental: (§1) Anxiety behavioral data measures were recorded, as was serum cortisol levels (an anxiety/stress-related biomarker), heart rate and blood cannabidiol content. Subjects were dosed once during each arm, approximately four (4) hours prior to the car ride test. Blood samples for measurements of cortisol and CBD were taken on two occasions during each arm. The first was on day 1, a no treatment day. The second was within 10 minutes (±2 minutes) following the car ride. Both blood samples were taken as closely as possible to the same time of day. Heart rate was continuously measured during the car ride. There were seven days of washout between treatment days. For the sake of scheduling, the 16 dogs were tested in two cohorts, with eight (8) dogs tested per cohort day. The test schedule that followed is outlined in Table 2.
Blood was collected for health profiling on day −8 and 2 mL and was placed into each a potassium oxalate/sodium fluoride, SST and K2EDTA tube. Whole blood collections for the purpose of cortisol and cannabidiol analysis were taken on eight occasions. Four (4) ml blood samples were collected from a suitable vein according to standard operating procedure for baseline 1 day prior to the car and 10 minutes (±2 minutes) after each car ride for cortisol and cannabidiol analysis. Prior to the baseline sample, subjects were placed in a quiet metabolic cage for 30 minutes (±2 minutes) for a more accurate reading of cortisol at rest. Two (2) ml blood were placed into a 2 ml SST tube and allowed to set until clotted. Serum was separated by centrifugation (2800-3200 rpm for 10 minutes at room temperature) and removed into a new serum blood tube. One aliquot of serum (0.5 ml) was placed into a cryovial and stored at approximately −80° C. for future analysis as necessary. […] Samples were analysed by mass spectrometry for the presence of cannabidiols and in particular CBD.
Post-car ride CBD levels were analyzed as a function of Dose using non-parametric analysis of variance.
Pre-car ride CBD levels were analyzed as a function of previous Dose using non-parametric analysis of variance. […]

[2] = system: car ride model of fear and anxiety; test: Car-ride model of fear and anxiety in dogs (10-minute car ride); format: in vivo, Beagle dogs; conditions: for Cortisol response to car ride: differed significantly from baseline
Experimental: A Car-Ride Model for fear and anxiety was used to assess the anxiolytic properties of a cannabidiol formulation on dog subjects. One of the objectives of this study was to determine the anxiolytic effectiveness of orally dosed CBD-enriched cannabidiol formulation at three dose levels, namely at: 4 mg/kg CBD; 12 mg/kg CBD; and 25 mg/kg CBD as compared to a placebo control in a car ride model of fear and anxiety.
Enrollment into the study was based on the subject's baseline activity response to a car ride. Twenty-four (24) Beagle Dogs were screened for car-ride induced elevation of blood cortisol. The initial screening occurred over a 10-day period. Sixteen of the 24 dogs were selected to be used in the subsequent efficacy trial. The schedule of operations for the baseline screen is outlined in Table 1.
The subsequent dose-finding efficacy trial was a blinded pre-clinical trial with sixteen (16) dogs. Dogs were allocated to four treatment groups each containing four (4) dogs based on the baseline response to the car-ride model. In the car-ride model, the dogs were placed in a travel crate secured in the back of a transport vehicle. Anxiety was assessed by monitoring behavior and heart rate during the car ride, and by blood cortisol measures after the car ride. A Williams design was used in which 3 dose levels of the drug and a placebo control were evaluated, with every dog being tested on every condition. Thus, the study had four cycles: four (4) groups of four (4) dogs each, with two (2) males and two (2) females per group, were given four (4) cycles of either one of three increasing doses of a cannabidiol-enriched liquid formulation or the vehicle (medium chain triglyceride solution without cannabidiol), each in a volume of 4 mL. Actives or placebo were administered on the fourth day of each cycle, four (4) hours (±15 minutes) before exposure to a 10-minute car ride in a controlled setting. Each dosing cycle was seven (7) days, so there were seven (7) days between doses.
as §1
Treatment conditions as follows: High Dose: 25 mg/kg CBD; Medium Dose: 12 mg/kg CBD; Low Dose: 4 mg/kg CBD; Placebo control: MCT (Medium Chain Triglyceride) solution. The animals were handled and cared for as similarly as possible throughout the study. The study used a Williams design. The experimental unit were one individual dog and the number of dogs per treatment sequence was four (4), each containing two (2) males and two (2) females.
The study was a blinded pre-clinical trial carried out in a standardized environment. Sixteen (16) dogs (8 males and 8 females) were included in the study. A Williams design, in which all test subjects receive all three dosages and one placebo were used. Four (4) groups of four (4) dogs each, with two (2) males and two (2) females per group, will be given four (4) cycles of either one of three increasing doses of a Cannabidiol-enriched liquid formulation or the vehicle (medium chain triglyceride solution without cannabidiol), each in a volume of 4 mL. Actives or placebo were administered on the fourth day of each cycle, four (4) hours (±15 minutes) before exposure to a 10-minute car ride. […]

[3] = system: noise-induced model of fear and anxiety; test: Noise-induced (thunderstorm) model of fear and anxiety in dogs, single dose; format: in vivo, Beagle dogs
Experimental: A Noise-Induced Model for fear and anxiety was used to assess the anxiolytic properties of a cannabidiol formulation on dog subjects. An objective of this study is to determine the anxiolytic effectiveness of an orally dosed CBD enriched cannabinoid formulation at three dose levels (25 mg/kg, 12 mg/kg, and 4 mg/kg) as compared to a placebo control in a noise-induced model of fear and anxiety.
A preliminary health screen including veterinary examinations and CBC/clinical chemistry blood work analysis was first used to select thirty-two (32) Beagle dogs for the Baseline Screening phase of this study. […] A four-arm Williams design was used, with four treatment groups of 4 animals per group. Subjects were allocated to the treatment groups (n=4) balanced for sex, serum cortisol, and behavioural (activity) response. On Days 4, 11, 18, and 25 (n=16), dogs were tested on the thunderstorm procedure after administration of one of three dose levels of test article or placebo. Anxiety was assessed by both live monitoring of specific behaviours and through post-trial monitoring of recorded video files, by continuous recording of heart rate during the test, and by analyzing serum cortisol levels after the test. Subjects were dosed once during each arm of the study, approximately 4 hours prior to the thunderstorm test. Blood was taken twice during each arm of the study including baseline phase; once for the purpose of determining resting cortisol levels, collected two days before thunderstorm procedures, and once for the purpose of determining post-thunderstorm cortisol levels as well as blood levels CBD and 7-COOH-CBD, collected 5 minutes (±2 minutes) following the test. Both blood collections were taken at about same time of day. There was a 6-day washout period between treatment days for all subjects.
On the day of testing, each group received a single dose of their assigned treatment according to Table 7 followed by a 6-day washout period prior to the next assessment Animals were dosed 4 hours (±10 minutes) prior to each thunderstorm assessment, at the same time of day on each dosing day. Subjects received either placebo (MCT oil) or CBD extract diluted to the correct concentration of either 4, 12 or 25 mg/kg with appropriate volume of MCT oil to a final volume of 4 mL for each dose. The test article was administered orally by syringe with attention to complete delivery and retention of the intended dose according to standard operating procedures. In the event that a subject vomited or regurgitated within the first 30 minutes of administration, the product was re-administered and time of re-dose was recorded. […]
The thunderstorm test was performed on Study Day −5, 4, 11, 18, and 25; this took place in the open field arena. During the 9-minute task, the first three minutes was designated as the pre-thunder interval, during which the dogs were allowed to freely explore the room in the absence of any external stimuli. During minutes 4-6 (thunder interval) a recorded thunderstorm track was played over a stereo system at approximately 105 dB. Animal behaviour was audio and video recorded for a total of 9 minutes and the following parameters assessed:
1. Distance travelled (m): the distance the animal moves within the room will be tracked and recorded in meters.
2. […] All other behaviours were considered “active” behaviours.
No stimuli were provided over the last three minutes (minutes 7-9). All behavioural parameters were measured as described for the open field test. Video files of each session were recorded to DVD and archived with the study files. […]

[4] = system: thunderstorm noise-induced model of anxiety; test: Thunderstorm noise-induced model of anxiety after chronic (28-day) CBD administration; format: in vivo, dogs
Experimental: The present study was conducted to evaluate the potential antianxiety effects of CBD after chronic administration using a thunderstorm model of anxiety. A placebo-controlled 28-day CBD dosing, behavioral and safety study was conducted in which the anti-anxiety behavioral effects of chronic CBD were evaluated after 7 and 21 days of CBD administration. Anxiety-related behavioral assessments were conducted using a thunderstorm noise-induced model of anxiety. Four different doses of CBD isolate (1, 2, 4 and 12 mg CBD/kg dog's body weight) were administered orally, as a liquid, once a day to fasted dogs. The primary anti-anxiety measures included blood cortisol levels, heart rate, distance traveled, head movements, global anxiety and scanning behavior.

[5] = Phase 1, 12 mg/kg CBD oral, n=4 dogs
[6] = Phase 1, 25 mg/kg CBD oral, n=4 dogs
[7] = all four phases combined, 25 mg/kg CBD oral, n=16 dogs, p=0.05

SMILES: C=C(C)[C@@H]1CCC(C)=C[C@H]1c1c(O)cc(CCCCC)cc1O [CBD, cannabidiol]
- Pre-car ride CBD levels as a function of previous dose ([1]; 7 days after previous dose, repeated measures ANOVA, 0.02 level): Previous dose effect was significant
- Post-car ride CBD levels as a function of dose ([1]; oral 4, 12, 25 mg/kg CBD or placebo 4 h before car ride, non-parametric analysis of variance, p=0.0000): highly significant dose effect
- Dogs that lay down during the 10-minute car ride ([2]; Phase 1, 2 of 4 dogs at each of 4, 12, or 25 mg/kg CBD oral, placebo 0 of 4): 50%
- Number of dogs across the CBD treatments who lay down during the car ride ([2]; Phase 1, CBD 4, 12, 25 mg/kg combined, placebo none of 4): 6 of 12 dogs
- Mean heart rate, effect of treatment ([2]; baseline, placebo, 4, 12 and 25 mg/kg oral, pre-test, min 1-5, min 5-10 of car ride, repeated measures ANOVA): no other significant main effects or interactions
- Post-car ride cortisol levels in female dogs ([2]; female dogs, CBD 4, 12, 25 mg/kg oral 4 h before car ride (FIG. 11)): decrease in cortisol levels
- Cortisol response to car ride ([2]; high dose 25 mg/kg CBD oral): more effective in reducing the cortisol response than the placebo and low dose treatments
- Cortisol response to car ride ([2]; medium dose 12 mg/kg CBD oral): more effective in reducing the cortisol response than the placebo and low dose treatments
- Distance travelled post-thunder (minutes 7-9), placebo vs CBD ([3]; 25 mg/kg oral 4 h before test, p=0.0445, LMM with treatment and order): significantly larger with placebo than 25 mg/kg
- Inactivity frequency post-thunder, placebo vs CBD ([3]; 25 mg/kg oral, p=0.0245, LMM with treatment and order): significantly smaller with placebo than 25 mg/kg
- Activity during minutes 1-3 of conditioned anxiety testing ([3]; CBD 4, 12, 25 mg/kg vs placebo): no significant differences
- Distance travelled during the 3-minute post-thunder interval (mean±SD) [3, 5]: 3.9±3.9 m
- Reduction of distance travelled during the 3-minute post-thunder interval vs placebo [3, 5]: 72%
- Distance travelled during the 3-minute post-thunder interval (mean±SD) [3, 6]: 5.5±4.0 m
- Distance travelled during the 3-minute thunderstorm noise (mean±SD) [3, 6]: 17.0±8.1 m
- Reduction of distance travelled during the 3-minute post-thunder interval vs placebo [3, 6]: 61%
- Reduction of distance travelled during the 3-minute thunderstorm noise vs placebo [3, 6]: 29%
- Distance travelled during the 3-minute post-thunder interval (mean±SD) [3, 7]: 3.5±3.9 m
- Reduction of distance travelled during the 3-minute post-thunder interval vs placebo [3, 7]: 65%
- Inactivity, effect of dose ([3]; repeated measures ANOVA, pre-thunder, thunder, post-thunder, p value for dose effect 0.762): no other significant main effects or interactions
- Cortisol, day 21 vs day 7 ([4]; 1 and 2 mg CBD/kg oral once a day): greater decrease in cortisol on day 21 than day 7
- Visual scanning ([4]; Day 7, 1 mg/kg): most reduced
- Global Anxiety Scores during thunder-noise ([4]; after 7 and 21 days of treatment, all groups): decreased
- Thunderstorm-induced body movements ([4]; chronic CBD administration): generally decreased
- Heart rate ([4]; chronic CBD treatment 1, 2, 4, 12 mg/kg oral once a day): not affected
- Global Anxiety Scores during thunder-noise, group with greatest decrease ([4]; day 7, 2 mg/kg): greatest decreases
- Head movements ([4]; day 7, two lowest CBD treatment groups (1 and 2 mg/kg)): decreased by day 7
- Global Anxiety Scores during thunder-noise, groups with greatest decrease ([4]; day 21, 1, 2 and 4 mg/kg): greatest decreases
- Visual scanning ([4]; day 21, 1 and 2 mg/kg): most reduced
- Head movements ([4]; day 21, all treatment groups): decline in head movements
- Cortisol ([4]; lowest 3 doses (1, 2, 4 mg/kg) oral once a day, days 7 and 21): decline in cortisol
- Anti-anxiety effects (stress biomarker, body movements, visual scanning, global anxiety scores) ([4]; three lower CBD doses (1, 2, 4 mg/kg) oral once a day): observable anti-anxiety effects

SMILES: C=C(C)[C@@H]1CCC(C(=O)O)=C[C@H]1c1c(O)cc(CCCCC)cc1O [7-COOH-CBD]
- 7-COOH-CBD levels across the 4 dose levels ([1]; post-car ride, repeated measures ANOVA): highly significant effect of dose
